Assay results published in patent US20230203004A1, “RSV INHIBITING 3-SUBSTITUTED QUINOLINE AND CINNOLINE DERIVATIVES” (Janssen Sciences Ireland Unlimited Company, priority 2020, published 2023).
Like-named read-outs stand apart in the source and are kept apart here.

Experiments:
rgRSV224 virus = test: Antiviral activity: rgRSV224 (GFP) replication in HeLa cells; assay type: cell-based, respiratory syncytial virus (RSV)
Description: (§1) Black 384-well clear-bottom microtiter plates (Corning, Amsterdam, The Netherlands) were filled via acoustic drop ejection using the echo liquid handler (Labcyte, Sunnyvale, California). 200 nL of compound stock solutions (100% DMSO) were transferred to the assay plates. 9 serial 4-fold dilutions of compound were made, creating per quadrant the same compound concentration. The assay was initiated by adding 10 µL of culture medium to each well (RPMI medium without phenol red, 10% FBS-heat inactivated, 0.04% gentamycin (50 mg/mL). All addition steps are done by using a multidrop dispenser (Thermo Scientific, Erembodegem, Belgium). Next, rgRSV224 virus (MOI = 1) diluted in culture medium was added to the plates. rgRSV224 virus is an engineered virus that includes an additional GFP gene (Hallak LK, Spillmann D, Collins PL, Peeples ME. Glycosaminoglycan sulfation requirements for respiratory syncytial virus infection; Journal of virology (2000), 74(22), 10508-13) and was in-licensed from the NIH (Bethesda, MD, USA). Finally, 20 µL of a HeLa cell suspension (3,000 cells/well) were plated. Medium, virus- and mock-infected controls were included in each test. The wells contain […] DMSO per volume. Cells were incubated at 37° C. in a 5% CO2 atmosphere. Three days post-virus exposure, viral replication was quantified by measuring GFP expression in the cells by an in house developed MSM laser microscope (Tibotec, Beerse, Belgium). The EC50 was defined as the 50% inhibitory concentration for GFP expression. In parallel, compounds were incubated for three days in a set of white 384-well microtiter plates (Corning) and the cytotoxicity of compounds in HeLa cells was determined by measuring the ATP content of the cells using the ATPlite kit (Perkin Elmer, Zaventem, Belgium) according to the manufacturer’s instructions. The CC50 was defined as the 50% concentration for cytotoxicity.

[1] = Cytotoxicity in HeLa cells (ATP content, ATPlite kit); assay type: cell-based; conditions: human
Description: as §1

[2] = read-out: RSV HELA EC50, HeLa cells, rgRSV224 MOI = 1, GFP expression three days post-virus exposure, averaged data of several repeat experiments
[3] = human respiratory syncytial virus, HeLa, 72 h, read-out: RSV HELA EC50, HeLa cells, rgRSV224 MOI = 1, GFP expression three days post-virus exposure, averaged data of several repeat experiments

Work on `COc1cc(C(=O)NCC(O)(c2cc(C(C)(C)O)c(F)c(-c3ccc(F)cc3)n2)C(F)F)cc2cc(C)c(F)nc12` (single isomer, unassigned; (+)) [compound 213, (+)-N-{3,3-Difluoro-2-[5-Fluoro-6-(4-Fluorophenyl)-4-(2-Hydroxypropan-2-yl)Pyridin-2-yl]-2-Hydroxypropyl}-2-Fluoro-8-Methoxy-3-Methylquinoline-6-Carboxamide] yielded an EC50 (rgRSV224 virus; [2]) of 0.52 µM and a CC50 at 3 days ([1]; TOX HELA CC50) of 31 µM.

Work on `COc1cc(C(=O)NCC(O)(c2cc(C(C)(C)O)c(F)c(-c3ccc(F)cc3)n2)C(F)F)cc2cc(C)nnc12` (single isomer, unassigned; (+)) [compound 249, (+)-N-{3,3-Difluoro-2-[5-Fluoro-6-(4-Fluorophenyl)-4-(2-Hydroxypropan-2-yl)Pyridin-2-yl]-2-Hydroxypropyl}-8-Methoxy-3-Methylcinnoline-6-Carboxamide] yielded an EC50 (rgRSV224 virus; [2]) of over 1.25 µM and a CC50 at 3 days ([1]; TOX HELA CC50) of 35 µM.

Compound `COc1cc(C(=O)NCC(O)(c2cc(C(C)(C)NC(C)=O)c(F)c(-c3ccc(F)cc3)n2)C(F)(F)F)cc2cc(C)nnc12` (single isomer, unassigned; (-)) [compound 235, (-)-N-{2-[4-(2-Acetamidopropan-2-yl)-5-Fluoro-6-(4-Fluorophenyl)Pyridin-2-yl]-3,3,3-Trifluoro-2-Hydroxypropyl}-8-Methoxy-3-Methylcinnoline-6-Carboxamide] has an EC50 (rgRSV224 virus; [3]) of 0.00062 µM and a CC50 at 3 days ([1]; TOX HELA CC50) of 25 µM.

For `COc1cc(C(=O)NCC(O)(c2cc(C(C)(C)O)c(F)c(-c3ccc(C4CC4)cc3)n2)C2CC2)cc2cc(C)nnc12` (single isomer, unassigned; (-)) [compound 254, (-)-N-{2-Cyclopropyl-2-[6-(4-Cyclopropylphenyl)-5-Fluoro-4-(2-Hydroxypropan-2-yl)Pyridin-2-yl]-2-Hydroxyethyl}-8-Methoxy-3-Methylcinnoline-6-Carboxamide], the EC50 (rgRSV224 virus; [3]) was 0.0035 µM and the CC50 at 3 days ([1]; TOX HELA CC50) was 15 µM.

Compound `COc1cc(C(=O)NCC(O)(c2cc(C(C)(C)O)c(F)c(-c3cccc(F)c3)n2)C2CC2)cc2cc(C)nnc12` (single isomer, unassigned; (-)) [compound 255, (-)-N-{2-Cyclopropyl-2-[5-Fluoro-6-(3-Fluorophenyl)-4-(2-Hydroxypropan-2-yl)Pyridin-2-yl]-2-Hydroxyethyl}-8-Methoxy-3-Methylcinnoline-6-Carboxamide] has an EC50 (rgRSV224 virus; [3]) of 0.00081 µM and a CC50 at 3 days ([1]; TOX HELA CC50) of 44 µM.

In the case of `Cc1cc2cc(C(=O)NCC(O)(c3cc(C(C)(C)O)c(F)c(-c4ccc(F)cc4)n3)C3CC3)cc(OC(F)F)c2nn1` (single isomer, unassigned; (-)) [compound 260, (-)-N-{2-Cyclopropyl-2-[5-Fluoro-6-(4-Fluorophenyl)-4-(2-Hydroxypropan-2-yl)Pyridin-2-yl]-2-Hydroxyethyl}-8-(Difluoromethoxy)-3-Methylcinnoline-6-Carboxamide], the EC50 (rgRSV224 virus; [3]) is reported as 0.0016 µM and the CC50 at 3 days ([1]; TOX HELA CC50) is reported as 19 µM.

In the case of `Cc1cc2cc(C(=O)NCC(O)(c3cc(C(C)(C)O)c(Cl)c(-c4ccc(F)cc4)n3)C(F)(F)F)cc(OC(F)(F)F)c2nn1` (single isomer, unassigned; (-)) [compound 261, (-)-N-{2-[5-Chloro-6-(4-Fluorophenyl)-4-(2-Hydroxypropan-2-yl)Pyridin-2-yl]-3,3,3-Trifluoro-2-Hydroxypropyl}-3-Methyl-8-(Trifluoromethoxy)Cinnoline-6-Carboxamide], the EC50 (rgRSV224 virus; [3]) is reported as 0.013 µM and the CC50 at 3 days ([1]; TOX HELA CC50) is reported as 13 µM.

Work on `COc1cc(C(=O)NCC(O)(c2cc(C(C)(C)O)c(F)c(-c3ccc(F)cc3)n2)[C@H]2CC2(F)F)cc2cc(C)nnc12` (stereo in doubt) [compound 319, N-((*R)-2,2-Difluorocyclopropyl)-2-(5-Fluoro-6-(4-Fluorophenyl)-4-Hydroxypropan-2-yl)Pyridin-2-yl)-2-Hydroxyethyl)-8-Methoxy-3-Methylcinnoline-6-Carboxamide] yielded an EC50 (rgRSV224 virus; [3]) of 0.0012 µM and a CC50 at 3 days ([1]; TOX HELA CC50) of 6.1 µM.

Compound `COc1cc(C(=O)NCC(O)(c2cc(C(C)(C)O)c(F)c(-c3ccc(F)cc3)n2)[C@@H]2CC2(F)F)cc2cc(C)nnc12` (stereo in doubt) [compound 320, N-((*S)-2,2-Difluorocyclopropyl)-2-(5-Fluoro-6-(4-Fluorophenyl)-4-Hydroxypropan-2-yl)Pyridin-2-yl)-2-Hydroxyethyl)-8-MZthoxy-3-Methylcinnoline-6-Carboxamide] has an EC50 (rgRSV224 virus; [3]) of 0.001 µM and a CC50 at 3 days ([1]; TOX HELA CC50) of 24 µM.

With `CC(C)(O)c1cc([C@@](O)(CNC(=O)c2cc(OC3CC3)c3ncccc3c2)C(F)(F)F)nc(-c2ccc(F)cc2)c1F` [Compound A, reference compound] the EC50 (rgRSV224 virus; human respiratory syncytial virus, HeLa, comparison table 5.3, antiviral RSV assay of Example 5.1) was 0.014 µM and the CC50 at 3 days ([1]; CC50) was 37 µM.

`COc1cc(C(=O)NC[C@](O)(c2cc(C(C)(C)O)c(Cl)c(-c3ccc(F)cc3)n2)C(F)(F)F)cc2cc(C)cnc12` [compound 200, (-)-N-{2-[5-Chloro-6-(4-Fluorophenyl)-4-(2-Hydroxypropan-2-yl)Pyridin-2-yl]-3,3,3-Trifluoro-2-Hydroxypropyl}-8-Methoxy-3-Methylquinoline-6-Carboxamide] showed an EC50 (rgRSV224 virus; [3]) of 0.0017 µM and a CC50 at 3 days ([1]; TOX HELA CC50) of 22 µM.

`COc1cc(C(=O)NC[C@](O)(c2nc(-c3ccc(F)cc3)c(F)c(C(C)(C)O)c2F)C(F)(F)F)cc2cc(C)cnc12` [compound 201, (-)-N-{2-[3,5-difluoro-6-(4-fluorophenyl)-4-(2-hydroxypropan-2-yl)pyridin-2-yl)-3,3,3-trifluoro-2-hydroxypropyl}-8-methoxy-3-methylquinoline-6-carboxamide] showed an EC50 (rgRSV224 virus; [3]) of 0.0026 µM and a CC50 at 3 days ([1]; TOX HELA CC50) of 43 µM.

With `COc1cc(C(=O)NC[C@](O)(c2nc(-c3ccc(F)cc3)c(Cl)c(C(C)(C)O)c2F)C(F)(F)F)cc2cc(C)cnc12` [compound 202] the EC50 (rgRSV224 virus; [3]) was 0.0048 µM and the CC50 at 3 days ([1]; TOX HELA CC50) was 46 µM.

With `COc1cc(C(=O)NC[C@](O)(c2cc(C(C)(C)O)c(Cl)c(-c3ccc(F)cc3)n2)C2CC2)cc2cc(C)cnc12` [compound 205, (-)-N-{2-[5-Chloro-6-(4-Fluorophenyl)-4-(2-Hydroxypropan-2-yl)Pyridin-2-yl]-2-Cyclopropyl-2-Hydroxyethyl}-8-Methoxy-3-Methylquinoline-6-Carboxamide] the EC50 (rgRSV224 virus; [3]) was 0.00081 µM and the CC50 at 3 days ([1]; TOX HELA CC50) was 32 µM.

`COc1cc(C(=O)NC[C@](O)(c2cc(C(C)(C)O)c(F)c(-c3ccc(F)cc3)n2)C2CC2)cc2cc(C)cnc12` [compound 206] showed an EC50 (rgRSV224 virus; [3]) of 0.00046 µM and a CC50 at 3 days ([1]; TOX HELA CC50) of 15 µM.

With `COc1cc(C(=O)NC[C@](O)(c2cc(C(C)(C)O)c(F)c(-c3ccc(C(F)(F)F)cc3)n2)C2CC2)cc2cc(C)cnc12` [compound 207] the EC50 (rgRSV224 virus; [3]) was 0.00077 µM and the CC50 at 3 days ([1]; TOX HELA CC50) was 13 µM.

Compound `COc1cc(C(=O)NC[C@](O)(c2cc(C(C)(C)O)c(F)c(-c3ccc(Cl)cc3)n2)C2CC2)cc2cc(C)cnc12` [compound 208, (-)-N-{2-[6-(4-chlorophenyl)-5-fluoro-4-(2-hydroxypropan-2-yl)pyridin-2-yl]-2-cyclopropyl-2-hydroxyethyl}-8-methoxy-3-methylquinoline-6-carboxamide] has an EC50 (rgRSV224 virus; [3]) of 0.001 µM and a CC50 at 3 days ([1]; TOX HELA CC50) of 14 µM.

`COc1cc(C(=O)NC[C@](O)(c2cc(C(C)(C)O)c(F)c(-c3ccc(F)c(F)c3)n2)C2CC2)cc2cc(C)cnc12` [compound 209, (-)-N-{2-Cyclopropyl-2-[6-(3,4-Difluorophenyl)-5-Fluoro-4-(2-Hydroxypropan-2-yl)Pyridin-2-yl]-2-Hydroxyethyl}-8-Methoxy-3-Methylquinoline-6-Carboxamide] gave an EC50 (rgRSV224 virus; [3]) of 0.00041 µM and a CC50 at 3 days ([1]; TOX HELA CC50) of 25 µM.
